The conditions of assay [1]: literature; cited from earlier work.
Assay [2] deals with S. aureus M838-17 (MRSA). The assay can be described thus: microbe, parasite or virus in culture. Format: cell-based, Staphylococcus aureus. The conditions noted are these: Staphylococcus aureus, MRSA; Table 7; by weight; read-out: MIC S. aureus M838-17 (MRSA). An outline of the steps:
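Peptides were serially diluted two-fold against bacteria grown in tryptic soy broth to log phase (OD600 ≈0.5), then seeded at OD600 0.001. Plates were held overnight at 37° C and read at 630 nm. USA300 was also tested at pH 6.8, 7.2 and 8.0, with 150 mM NaCl or 5-10% serum, plasma or peritoneal fluid.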

The subject of assay [3] is S. aureus USA300. The assay can be described thus: microbe, parasite or virus in culture. The conditions noted are these: for MIC: read-out: MIC S. aureus USA300 (MRSA). Format: cell-based, Staphylococcus aureus. An outline of the steps: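 Broth microdilution: log-phase cultures in tryptic soy broth diluted to OD600 0.001, exposed to two-fold diluted peptides at 37° C overnight, growth read at 630 nm. Medium effects on S. aureus USA300 tested with up to 200 mM NaCl, 2 mM CaCl2, 5-10% human serum, mouse plasma, fluids or tissue homogenate supernatants.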

Assay [4] has as its system E. faecium V286-17 (VRE). The assay can be described thus: microbe, parasite or virus in culture. Format: cell-based, Enterococcus faecium. The conditions noted are these: read-out: MIC E. faecium V286-17 (VRE). From the text:
(§1) The bacterial strains used include the Gram-positive strains Staphylococcus aureus USA300 LAC, S. epidermidis 1457, and Bacillus subtilis 168, as well as the Gram-negative isolates Escherichia coli K12 and Acinetobacter baumannii B2367-12. Additional, drug resistance strains include Gram-positive Enterococcus faecium V286-17 (VRE) and S. aureus M838-17 (MRSA) and Gram-negative E. coli E423-17, E. coli E416-17 (ampC), and P. aeruginosa E411-17. Bacteria were cultivated in tryptic soy broth (TSB) (BD Bioscience, MD).
(§2) The antibacterial activity of peptides was evaluated using a standard broth microdilution protocol with minor modifications as described (Mishra, et al. (2012) J. Am. Chem. Soc., 134:12426-12429). In brief, logarithmic phase bacterial cultures (i.e., optical density at 600 nm≈0.5) were diluted to OD600 0.001 and partitioned into a 96-well polystyrene microplate at 90 μL per well. After treatment with 10 μL of peptide solutions two fold diluted to various concentrations, microplates were incubated at 37° C. overnight and read on a ChroMate® 4300 Microplate Reader at 630 nm (GMI, Ramsey, MN). […] To study the influence of medium conditions on the antimicrobial activity of peptides against S. aureus USA300, up to 200 mM sodium chloride (NaCl), 2 mM of calcium chloride, 5-10% of human serum, mouse plasma, fluid, or supernatants of tissue homogenates were included into the assays.
(§3) The bacterial strains used include the Gram-positive bacteria methicillin-resistant Staphylococcus aureus USA300, Enterococcus faecium V286-17 (VRE), S. aureus M838-17 (MRSA) and Gram-negative bacteria E. coli E423-17, E416-7 (ampC), P. aeruginosa E411-17, PA01, K. pneumoniae E406-17, ATCC13883, and A. baumannii B26-16. Bacteria were cultivated in tryptic soy broth (TSB) from BD Bioscience.
(§4) The antibacterial activity of peptides was evaluated using a standard broth microdilution protocol with minor modifications (Mishra, et al. (2017) Acta Biomater., 49:316-328). In brief, logarithmic phase bacterial cultures (i.e., optical density at 600 nm≈0.5) were diluted to 0.001 OD and aliquoted 90 μL per well into a 96-well polystyrene microplate. Added 10 μL peptides per well with various concentrations, plates were incubated at 37° C., overnight. Post incubation the plates are read at 630 nm using a ChroMate® Microplate Reader (GMI). […] To study the influence of medium conditions on the antimicrobial activity of peptides against S. aureus USA300 at different pHs (6.8, 7.2, and 8.0), 150 mM sodium chloride (NaCl), 5-10% of human serum, mouse plasma, and peritoneal fluid were included into the assays.

The subject of assay [5] is P. aeruginosa E411-17. The assay can be described thus: microbe, parasite or virus in culture. Format: cell-based, Pseudomonas aeruginosa. The conditions noted are these: read-out: MIC P. aeruginosa E411-17.
Source text: as §1, §2, §3, §4

Assay [6] relates to K. pneumoniae E406-17. The assay can be described thus: microbe, parasite or virus in culture. Format: cell-based, Klebsiella pneumoniae. To be noted: read-out: MIC K. pneumoniae E406-17. How it is done:
as §2, §3, §4

Assay [7] concerns E. coli E423-17. Kind of assay: microbe, parasite or virus in culture. Format: cell-based, Escherichia coli. To be noted: read-out: MIC E. coli E423-17.
Source text: as §1, §2, §3, §4

The subject of assay [8] is A. baumannii B26-16. The assay can be described thus: microbe, parasite or virus in culture. Format: cell-based, Acinetobacter baumannii. The conditions noted are these: read-out: MIC A. baumannii B26-16. As for the experimental part: as §3, §4
In assay [9] the test system is S. aureus USA300. The assay can be described thus: Propidium iodide membrane permeation. Format: cell-based, Staphylococcus aureus. As for the experimental part:
The membrane permeation experiment was performed as described with minor modifications (Wang, et al. (2005) J. Biol. Chem., 280:5803-5811). Serially diluted 10× peptides (10 μL each well) were created in 96-well microtiter plates. Propidium iodide (2 μL) at a fixed concentration of 20 μM were added to each well followed by 88 μL of the S. aureus USA300 culture (a final OD600˜0.1 in TSB media). The plate was incubated at 37° C. with continuous shaking at 100 rpm in a FLUOstar® Omega (BMG LABTECH, Cary, NC) microplate reader. The fluorescence from the plate was read every 5 minutes for a total duration of 2 hours with an excitation and emission wavelengths of 584 nm and 620 nm, respectively. Plots were made using average values of duplicated experiments with MARS software.
The experiment was performed as described previously with minor modifications (Mishra, et al. (2017) Acta Biomater., 49:316-328). Serially diluted 10× peptides (10 μL each well) were created in 96-well microtiter plates. Propidium iodide (2 μL) at a fixed concentration of 20 μM were added to each well followed by 88 μL of the S. aureus USA300 culture (a final OD600˜0.1 in TSB media or PBS). The plate was incubated at 37° C. with continuous shaking at 100 rpm in a FLUOstar® Omega (BMG LABTECH) microplate reader. The samples fluorescence was read at every 5 minutes for 24 cycles with an excitation and emission wavelengths of 584 nm and 620 nm, respectively. Plots generated using average values from the experiments using GraphPad Prism.

Assay [10] deals with E. coli ATCC 25922. Format: cell-based, Escherichia coli. The conditions noted are these: ATCC 25922. The essentials: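 Peptides, serially diluted two-fold, were incubated overnight at 37 °C with E. coli ATCC 25922 from log-phase cultures adjusted to OD600 0.001. Turbidity at 630 nm served as the read-out in this broth microdilution format.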
Assay [11] has as its system K. pneumoniae ATCC 13883. Format: cell-based, Klebsiella pneumoniae. To be noted: ATCC 13883. The essentials:
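Broth microdilution in tryptic soy broth: log-phase cultures (OD600 ≈0.5) diluted to OD600 0.001, given two-fold peptide dilutions, incubated overnight at 37° C. Growth read at 630 nm.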

For assay [12], the system named is S. aureus USA300. Format: in vivo, Staphylococcus aureus. The conditions noted are these: different tissues; single i.p. injection; positive control. How it is done:
Female C57BL/6 mice (6 weeks old) were purchased from Charles River. After environment adaptation, mice were induced neutropenic by administering two doses of cyclophosphamide on day 1 (150 mg/kg) and Day 4 (100 mg/kg). This cyclophosphamide administration was skipped for experiments using non-neutropenic mice (i.e., normal mice). On day 5, mice were infected with S. aureus USA300 LAC (˜2×10^6 CFU per mouse) via intraperitoneal injection (i.p.). For the treatment groups, mice were i.p. treated 2 hours post infection with peptides at a single dose of 5 mg/kg. Both positive and negative controls were included. At the end of the experiments, all animals were sacrificed according to institutional guidelines. Organs, including spleen, lung, kidney, and liver, were harvested, weighed, placed in sterile PBS and stored on ice. Harvested animal organs were subsequently homogenized using homogenizer (Omni, Kennesaw, GA). Proper dilutions, especially for untreated control groups, were made to get countable colonies. Blood agar plates were then incubated overnight at 37° C. The bacteria grown on plates were enumerated and plotted using the Graph pad Prism software.
Female C57BL/6 or Balb/c mice (6 weeks old) were purchased from Charles River. The mice were induced neutropenic by administering two doses of cyclophosphamide on day 1 (150 mg/kg) and Day 4 (100 mg/kg). On day 5, mice were infected with S. aureus USA300 (˜2×10^6 CFU per mouse) or K. pneumoniae E406-17 (˜5×10^5 CFU per mouse) via intraperitoneal injection (i.p.). For the treatment groups, mice were i.p. or intravenous (i.v.) treated 2 hours post infection with peptides at a single dose of 5, 10, or 15 mg/kg. Both positive and negative controls are used. At the end of the experiments, all animals were sacrificed according to institutional guidelines. […] The CFU of each mouse was plotted as an individual point and error bars represent the deviation within the experimental group. * p<0.05 ** p<0.01, ***p<0.001 and NS represents no significance (determined by Mann-Whitney test).

[13] abbreviates: Staphylococcus aureus, MRSA / USA300, Table 14.
Where [14] appears, read: Enterococcus faecium, VRE, Table 7.
Where [15] appears, read: Enterococcus faecium, VRE, Table 14.
Setting [16] is: Pseudomonas aeruginosa, E41117, Table 14.
The mark [17] stands for this setting: Klebsiella pneumoniae, E40617, Table 14.
The mark [18] stands for this setting: Escherichia coli, E42317, Table 14.
Setting [19] is: Acinetobacter baumannii, B2616, Table 14.

In brackets after ≈: the same amount, converted by molar mass. Entries after “also recorded” stand apart in the source; their conditions may differ. Read-outs that look alike come from different tables or passages of the source. Ends that are not written are not given here. Peptide text beside a SMILES is read from it.

Turning to “GIGKFLKKAKKFGKAFVKILKK (not fully specified (C-terminus)) [MSI-78]”, the “In vivo outcome” value in assay [1] was “failure”.

For `CO[C@H]1/C=C/O[C@@]2(C)Oc3c(C)c(O)c4c(O)c(cc(O)c4c3C2=O)NC(=O)/C(C)=C\C=C\[C@H](C)[C@H](O)[C@@H](C)[C@@H](O)[C@@H](C)[C@H](OC(C)=O)[C@@H]1C` [Rifamycin, reference compound], the MIC in [2] was 1.56 µM (≈ 1.09 µg/mL); in [3] (setting [13]) it was 0.25 µM (≈ 0.174 µg/mL); in [4] (setting [14]) it was 12.5 µM (≈ 8.72 µg/mL); in [4] (setting [15]) it was above 8 µM; in assay [5] (setting [16]), above 8 µM; in assay [6] (setting [17]), above 8 µM. Moreover, the MIC in assay [7] (setting [18]) and in assay [8] (setting [19]) was above 8 µM each time. Further, the “Propidium iodide membrane permeation” value in [9] is given as “failed to permeate”.

In the case of `CC[C@H](C)[C@H](NC(=O)[C@H](CCCCN)NC(=O)[C@H](CCCNC(=N)N)NC(=O)[C@H](CC(C)C)NC(=O)[C@H](Cc1c[nH]c2ccccc12)NC(=O)[C@H](Cc1c[nH]c2ccccc12)NC(=O)[C@@H](N)Cc1c[nH]c2ccccc12)C(=O)N[C@@H](Cc1c[nH]c2ccccc12)C(N)=O` [WW291, WWWLRKIW] (H-WWWLRKIW-NH2; N-terminus and C-terminus assumed), the “MIC S. aureus USA 300” value in assay [3] (USA300) was 3.1 µM (≈ 3.94 µg/mL). The MIC is recorded as 4 µM (≈ 5.09 µg/mL) in [3] (USA300); 4 µM (≈ 5.09 µg/mL) in assay [4] (V286-17 (VRE)); above 32 µM in assay [5] (E411-17); at least 32 µM in assay [6] (E406-17); 8 µM (≈ 10.2 µg/mL) in assay [7] (E423-17); 16 µM (≈ 20.4 µg/mL) in [8] (B26-16). Moreover, in [10], the “MIC E. coli ATCC 25922” value was 6.2 to 12.5 µM. Besides, the “MIC K. pneumoniae ATCC 13883” value in assay [11] came out at 12.5 µM (≈ 15.9 µg/mL). For the same compound, the “Propidium iodide membrane permeation” value in [9] is on record as “permeate bacterial membranes”.

As to `CCCCCCCCCC(=O)N[C@@H](Cc1c[nH]c2ccccc12)C(=O)N[C@H](CC(N)=O)C(=O)N[C@@H](CC(=O)O)C(=O)N[C@@H]1C(=O)NCC(=O)N[C@@H](CCCN)C(=O)N[C@@H](CC(=O)O)C(=O)N[C@H](C)C(=O)N[C@@H](CC(=O)O)C(=O)NCC(=O)N[C@H](CO)C(=O)N[C@@H]([C@H](C)CC(=O)O)C(=O)N[C@@H](CC(=O)c2ccccc2N)C(=O)O[C@@H]1C` [Daptomycin], the MIC in assay [2] was 0.78 µM (≈ 1.26 µg/mL); in assay [3] (setting [13]), 4 µM (≈ 6.48 µg/mL); in assay [4] (setting [14]), 3.1 µM (≈ 5.02 µg/mL); in assay [4] (setting [15]), 4 µM (≈ 6.48 µg/mL); in [5] (setting [16]) it was above 8 µM; in [6] (setting [17]), above 8 µM. The MIC in [7] (setting [18]) and in assay [8] (setting [19]) was above 8 µM throughout. For the same compound, the “Propidium iodide membrane permeation” value in assay [9] was “fluorescence increase; also recorded: permeated bacterial membranes”. In addition, in assay [12], the “Decrease in bacterial burden” value is 1-4 logs.

Take “RPDKPRPYLPRPRPPRPVR (not fully specified (C-terminus)) [Peptide A3-APO]”: the “In vivo outcome” value in [1] is “showed in vivo efficacy”.

As for “ALWMTLLKKVLKAAAK (not fully specified (C-terminus)) [DS4(1-16)]”, the “In vivo outcome” value in assay [1] is given as “failure”.
